Test results from PubChem BioAssay AID276 (DTP/NCI, 2004).
Where “and” joins values, the source holds several entries; their conditions need not be identical. Equal values may be shown once. Inconclusive results and toxic doses are left out. Residues, ends and D or L forms follow the SMILES beside them. *: point of attachment. Trt = c1ccc(C(c2ccccc2)(c2ccccc2)*)cc1; Cbz = O=C(OCc1ccccc1)*; Bn = c1ccc(C*)cc1; βAla = NCCC(=O)O

Test system: B6C3F1 mice, Lewis lung carcinoma iv, survival T/C
Experiment: NCI In Vivo Anticancer Drug Screen. Data for tumor model Lewis Lung Carcinoma (intravenous) in B6C3F1 mice
Conditions: endpoint: median survival time, higher = longer survival
Outline: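 Transplantable tumor in mice; compound treated vs vehicle controls; read-out survival; value = treated/control (T/C).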

[1] = dose: 6.25 mg/kg/injection, schedule: Q01DX009 (ip), vehicle: saline
[2] = dose: 12.5 mg/kg/injection, schedule: Q01DX009 (ip), vehicle: saline
[3] = dose: 25.0 mg/kg/injection, schedule: Q01DX009 (ip), vehicle: saline
[4] = dose: 50.0 mg/kg/injection, schedule: Q01DX009 (ip), vehicle: saline
[5] = dose: 100.0 mg/kg/injection, schedule: Q01DX009 (ip), vehicle: saline
[6] = dose: 12.5 mg/kg/injection, schedule: Q01DX009 (ip), vehicle: saline with Tween-80
[7] = dose: 25.0 mg/kg/injection, schedule: Q01DX009 (ip), vehicle: saline with Tween-80
[8] = dose: 50.0 mg/kg/injection, schedule: Q01DX009 (ip), vehicle: saline with Tween-80
[9] = dose: 50.0 mg/kg/injection, schedule: Q01DX009 (ip), vehicle: Klucel (hydroxypropylcellulose) (HPC)
[10] = dose: 100.0 mg/kg/injection, schedule: Q01DX009 (ip), vehicle: Klucel (hydroxypropylcellulose) (HPC)
[11] = dose: 200.0 mg/kg/injection, schedule: Q01DX009 (ip), vehicle: Klucel (hydroxypropylcellulose) (HPC)
[12] = dose: 3.12 mg/kg/injection, schedule: Q01DX009 (ip), vehicle: Klucel (hydroxypropylcellulose) (HPC)
[13] = dose: 6.25 mg/kg/injection, schedule: Q01DX009 (ip), vehicle: Klucel (hydroxypropylcellulose) (HPC)
[14] = dose: 25.0 mg/kg/injection, schedule: Q01DX009 (ip), vehicle: Klucel (hydroxypropylcellulose) (HPC)
[15] = dose: 400.0 mg/kg/injection, schedule: Q01DX009 (ip), vehicle: Klucel (hydroxypropylcellulose) (HPC)
[16] = dose: 12.5 mg/kg/injection, schedule: Q01DX009 (ip), vehicle: Klucel (hydroxypropylcellulose) (HPC)

For O=P1(N(CCCl)CCCl)NCCCO1 (centres undefined), the T/C (dose: 6.0 mg/kg/injection, schedule: Q01DX009 (ip), vehicle: saline) was 105 % of control, the T/C [1] was 108 % of control and the T/C (dose: 12.0 mg/kg/injection, schedule: Q01DX009 (ip), vehicle: saline) was 116 % of control. For the same molecule, the T/C [2] was 123 % of control, the T/C (dose: 25.0 mg/kg/injection, schedule: Q01DX001 (ip), vehicle: saline) was 110 % of control and the T/C [3] was 191 % of control. The T/C (dose: 37.0 mg/kg/injection, schedule: Q01DX001 (ip), vehicle: saline) was 120 % of control, the T/C (dose: 48.4 mg/kg/injection, schedule: Q01DX001 (ip), vehicle: saline) was 103 % of control and the T/C (dose: 50.0 mg/kg/injection, schedule: Q01DX001 (ip), vehicle: saline) was 116 % of control and 122 % of control. For the same molecule, the T/C [4] was 337 % of control, the T/C (dose: 64.4 mg/kg/injection, schedule: Q01DX001 (ip), vehicle: saline) was 115 % of control and the T/C (dose: 75.0 mg/kg/injection, schedule: Q01DX001 (ip), vehicle: saline) was 171 % of control. The T/C (dose: 100.0 mg/kg/injection, schedule: Q01DX001 (ip), vehicle: saline) was 151 % of control and 152 % of control and 188 % of control, the T/C (dose: 150.0 mg/kg/injection, schedule: Q01DX001 (ip), vehicle: saline) was 349 % of control and the T/C (dose: 300.0 mg/kg/injection, schedule: Q01DX001 (ip), vehicle: saline) was 230 % of control. The T/C (dose: 400.0 mg/kg/injection, schedule: Q01DX001 (ip), vehicle: saline) was 312 % of control.
Cc1nnc2ncccn12 was tested, and the T/C [2] was 104 % of control, the T/C [3] was 110 % of control and the T/C [4] was 101 % of control. The T/C [5] was 96 % of control and the T/C (dose: 400.0 mg/kg/injection, schedule: Q01DX009 (ip), vehicle: saline) was 103 % of control.
For CC1c2ccccc2CC(CCN(C)C)c2ccccc21 (centres undefined), the T/C (dose: 6.25 mg/kg/injection, schedule: Q01DX009 (ip), vehicle: saline with Tween-80) was 100 % of control, the T/C [6] was 101 % of control and the T/C [7] was 107 % of control. For the same molecule, the T/C [8] was 96 % of control.
For COC(=O)[C@@H]1c2cc3c(c(O)c2[C@@H](OC)C[C@@]1(C)O)C(=O)c1c(O)cc2c(c1C3=O)OC1O[C@@]2(C)[C@H](O)[C@@H](N(C)C)[C@@H]1O, the T/C (dose: 1.56 mg/kg/injection, schedule: Q01DX009 (ip), vehicle: saline) was 99 % of control, the T/C (dose: 3.13 mg/kg/injection, schedule: Q01DX009 (ip), vehicle: saline) was 112 % of control and the T/C [1] was 101 % of control. The T/C [2] was 97 % of control.
COc1cc(C2c3cc4c(cc3[C@@H](OC3OC5CO[C@@H](C)OC5C(O)C3O)[C@H]3COC(=O)C23)OCO4)cc(OC)c1OC (some centres undefined) was tested, and the T/C [2] was 113 % of control, the T/C [3] was 121 % of control and the T/C [4] was 117 % of control. For the same molecule, the T/C [5] was 191 % of control.
For COC(=O)Nc1cn2ccc(Sc3ccccc3)cc2n1, the T/C [9] was 101 % of control, the T/C [10] was 106 % of control and the T/C [11] was 101 % of control.
With CNC(=O)c1cccc2c(Nc3ccc(NS(C)(=O)=O)cc3OC)c3cccc(C)c3nc12 the T/C (dose: 3.0 mg/kg/injection, schedule: Q04DX003 (ip), vehicle: saline + alcohol) was 114 % of control, the T/C (dose: 3.12 mg/kg/injection, schedule: Q04DX003 (ip), vehicle: saline + alcohol) was 118 % of control and the T/C (dose: 6.0 mg/kg/injection, schedule: Q04DX003 (ip), vehicle: saline + alcohol) was 156 % of control. The T/C (dose: 12.5 mg/kg/injection, schedule: Q04DX003 (ip), vehicle: saline + alcohol) was 181 % of control and 309 % of control (2×), the T/C (dose: 12.5 mg/kg/injection, schedule: Q04DX003 (ip), vehicle: water) was 178 % of control and the T/C (dose: 25.0 mg/kg/injection, schedule: Q04DX003 (ip), vehicle: water) was 260 % of control.
For O=CC(S)CO (centres undefined), the T/C [2] was 105 % of control and 107 % of control, the T/C [3] was 95 % of control and 107 % of control and the T/C [4] was 101 % of control and 102 % of control. The T/C [5] was 101 % of control and 112 % of control and the T/C (dose: 200.0 mg/kg/injection, schedule: Q01DX009 (ip), vehicle: saline) was 96 % of control and 102 % of control.
For CNC(=O)/C=C/C1=CN2C(=O)c3ccc(C)c(O)c3NC(OC)C2C1 (centres undefined), the T/C (dose: 0.01 mg/kg/injection, schedule: Q01DX009 (ip), vehicle: saline) was 90 % of control and 113 % of control, the T/C (dose: 0.02 mg/kg/injection, schedule: Q01DX009 (ip), vehicle: saline) was 93 % of control and the T/C (dose: 0.03 mg/kg/injection, schedule: Q01DX009 (ip), vehicle: saline) was 96 % of control. For the same molecule, the T/C (dose: 0.05 mg/kg/injection, schedule: Q01DX009 (ip), vehicle: saline) was 97 % of control and 107 % of control and the T/C (dose: 0.1 mg/kg/injection, schedule: Q01DX009 (ip), vehicle: saline) was 90 % of control and 103 % of control.
With CCCC(=O)OCC1OC(n2cnc3c(=S)nc[nH]c32)C(OC(=O)CCC)C1OC(=O)CCC (centres undefined) the T/C [6] was 99 % of control, the T/C [7] was 99 % of control and the T/C [8] was 94 % of control.
With O=NN(CCCl)C(=O)NC1CCC(=O)NC1=O (centres undefined) the T/C (dose: 1.0 mg/kg/injection, schedule: Q01DX009 (ip), vehicle: saline with Tween-80) was 113 % of control, the T/C (dose: 4.0 mg/kg/injection, schedule: Q01DX009 (ip), vehicle: saline with Tween-80) was 225 % of control and the T/C (dose: 8.0 mg/kg/injection, schedule: Q01DX009 (ip), vehicle: saline with Tween-80) was 312 % of control. The T/C (dose: 16.0 mg/kg/injection, schedule: Q01DX009 (ip), vehicle: saline with Tween-80) was 93 % of control.
With c1cc2n(n1)CCN2 the T/C [3] was 107 % of control, the T/C [4] was 97 % of control and the T/C [5] was 97 % of control.
In the case of COc1c(C=O)c2c(c(OC)c1OC)-c1ccc(OC)c(=O)cc1[C@@H](NC(C)=O)CC2, the T/C (dose: 1.56 mg/kg/injection, schedule: Q01DX009 (ip), vehicle: Klucel (hydroxypropylcellulose) (HPC)) is reported as 95 % of control, the T/C [12] is reported as 98 % of control and the T/C [13] is reported as 95 % of control.
With O=C1NC(=O)C2C3C=CC(C12)C1C2C(=O)NC(=O)C2C31 (centres undefined) the T/C [6] was 96 % of control and 105 % of control, the T/C [7] was 95 % of control and 102 % of control and the T/C [8] was 99 % of control. The T/C (dose: 100.0 mg/kg/injection, schedule: Q01DX009 (ip), vehicle: saline with Tween-80) was 96 % of control and the T/C (dose: 200.0 mg/kg/injection, schedule: Q01DX009 (ip), vehicle: saline with Tween-80) was 91 % of control.
In the case of O=NN(CCF)C(=O)NCCO, the T/C (dose: 5.0 mg/kg/injection, schedule: Q01DX009 (ip), vehicle: saline) is reported as 238 % of control and the T/C (dose: 10.0 mg/kg/injection, schedule: Q01DX009 (ip), vehicle: saline) is reported as 215 % of control.
For C[C@]12C=CC(=O)C=C1CC[C@@H]1[C@@H]2[C@@H](O)C[C@@]2(C)[C@H]1CC[C@]2(O)C(=O)CO, the T/C [14] was 107 % of control, the T/C [9] was 118 % of control and the T/C [10] was 107 % of control. The T/C [11] was 118 % of control and the T/C [15] was 107 % of control.
In the case of CCc1ccccc1N1CCN(C(=O)c2cc(OC)c(OC)c(OC)c2)CC1, the T/C [13] is reported as 106 % of control, the T/C [16] is reported as 103 % of control and the T/C [14] is reported as 110 % of control. The T/C [9] was 110 % of control and the T/C [10] was 105 % of control.
For COC(=O)C(CSC(c1ccccc1)(c1ccccc1)c1ccccc1)NC(=O)C(CSCc1ccccc1)NC(=O)CCNC(=O)OCc1ccccc1 (centres undefined) ({Cbz-βAla}-Cys(Bn)-Cys(Trt)-OMe; configuration not given here), the T/C [9] was 93 % of control, the T/C [10] was 98 % of control and the T/C [11] was 97 % of control. The T/C [15] was 100 % of control and the T/C (dose: 800.0 mg/kg/injection, schedule: Q01DX009 (ip), vehicle: Klucel (hydroxypropylcellulose) (HPC)) was 98 % of control.
With CCCC(=O)OCc1cc(=O)n(C)c2c3c4c(cc12)c(C)cc(=O)n4CO3 the T/C [12] was 91 % of control, the T/C [13] was 97 % of control and the T/C [16] was 92 % of control. For the same molecule, the T/C [9] was 118 % of control.
O=C1C=C2C(=CCOC2O)O1 (centres undefined) was tested, and the T/C (dose: 0.25 mg/kg/injection, schedule: Q01DX009 (ip), vehicle: Klucel (hydroxypropylcellulose) (HPC)) was 99 % of control, the T/C (dose: 0.5 mg/kg/injection, schedule: Q01DX009 (ip), vehicle: Klucel (hydroxypropylcellulose) (HPC)) was 104 % of control and the T/C (dose: 0.75 mg/kg/injection, schedule: Q01DX009 (ip), vehicle: saline) was 97 % of control. The T/C (dose: 1.0 mg/kg/injection, schedule: Q01DX009 (ip), vehicle: Klucel (hydroxypropylcellulose) (HPC)) was 94 % of control, the T/C (dose: 1.5 mg/kg/injection, schedule: Q01DX009 (ip), vehicle: saline) was 98 % of control and the T/C (dose: 2.0 mg/kg/injection, schedule: Q01DX009 (ip), vehicle: Klucel (hydroxypropylcellulose) (HPC)) was 98 % of control. The T/C (dose: 3.0 mg/kg/injection, schedule: Q01DX009 (ip), vehicle: saline) was 98 % of control and the T/C (dose: 4.0 mg/kg/injection, schedule: Q01DX009 (ip), vehicle: Klucel (hydroxypropylcellulose) (HPC)) was 94 % of control.
